Assay results taken from patent publication US20160144031A1, “Photo-Responsive Compounds” (priority 2013, published 2016).

Columns and labels:
[1] = Photolysis rate comparison: Xe flash lamp, 546±10 nm, conversion to hydroxocobalamin monitored at 350 nm; assay type: physicochemical; conditions: 10 μM
Experimental: General procedure: Photolysis was performed using an Oriel Xe flash lamp (800 mJ, 62 Hz) with a selective bandpass filter for 546±10 nm. The conversion of alkylcobalamin to hydroxocoabalmin was determined by monitoring the absorption of the mixture at 350 nm using Perkin Elemer Lambda 2 UV/Vis spectrophotometer. (Taylor, R. T.; Smucker, L.; Hanna, M. L.; Gill, J. Arch. Biochem. Biophys. 1973, 156, 521-533.)

[2] = Photolysis (Xe flash lamp, bandpass filters) and dark storage assessed by UV-Vis and LC/MS; assay type: physicochemical; conditions: for photolysis at 546 nm (LC/MS): 546±10 nm (20 min); for photolysis at 546 nm (LC/MS) / photolysis at 646 nm (UV-Vis, LC/MS) / photolysis at 730 nm (LC/MS) / photolysis at 780 nm (LC/MS): 10 μM; for photolysis at 646 nm (UV-Vis, LC/MS): 646±10 nm (20 min); for photolysis at 730 nm (LC/MS): 730±10 nm (150 min); for photolysis at 780 nm (LC/MS): 780±10 nm (3 h)
Experimental: […] The conversion of alkylcobalamin to hydroxocoabalmin was determined by monitoring the absorption of the mixture at 350 nm using Perkin Elemer Lambda 2 UV/Vis spectrophotometer. (Taylor, R. T.; Smucker, L.; Hanna, M. L.; Gill, J. Arch. Biochem. Biophys. 1973, 156, 521-533.)
[…] The resulting sample (100 μL) was analyzed by LC/MS using a linear gradient binary solvent system (solvent A: 0.1% formic acid/H2O; solvent B: 0.1% formic acid/CH3CN) with a ratio of A:B that varied from 97:3 (0-5 min) to 3:97 (5-18 min).

HeLa cells = assay: Treatment of HeLa cells with colchicine (tubulin staining); assay type: cell-based; conditions: increasing colchicine
Experimental: Treatment of HeLa cells with colchicine. […] Cells are washed 2×1 mL with PBS and blocked for 1 h in 5% donkey serum. […] Metamorph software is employed for imaging analysis.

[3] = administered by IV; cited from earlier work

**Q.** Which “rate of photolysis at 546 nm” value [1] does the source give for `C/C1=C2/[N-]C([C@H](CC(N)=O)[C@@]2(C)CCC(=O)NC[C@@H](C)OP(=O)([O-])O[C@H]2[C@@H](O)[C@@H](n3cnc4cc(C)c(C)cc43)O[C@@H]2CO)[C@]2(C)N=C(/C(C)=C3N=C(/C=C4N=C1[C@@H](CCC(N)=O)C\4(C)C)[C@@H](CCC(N)=O)[C@]\3(C)CC(N)=O)[C@@H](CCC(N)=O)[C@]2(C)CC(N)=O.[CH2-][C@H]1O[C@@H](n2cnc3c(N)ncnc32)[C@@H](O)[C@@H]1O.[Co+3]` [AdoCbl, Coenzyme B12, reference compound] here?
**A.** 1.7±0.2 μM^−1/m

**Q.** And the “photolysis at 546 nm (LC/MS)” value [2]?
**A.** produces these products

**Q.** What about the “photolysis at wavelengths beyond 600 nm (LC/MS)” value [2] of the same compound?
**A.** resistant to photolysis

**Q.** Which photolysis rate [1] does the source give for `C/C1=C2/[N-][C@H]([C@H](CC(N)=O)[C@@]2(C)CCC(=O)NC[C@H](C)OP(=O)([O-])O[C@H]2[C@@H](O)[C@@H](n3cnc4cc(C)c(C)cc43)O[C@@H]2CO)[C@]2(C)N=C(/C(C)=C3N=C(/C=C4N=C1[C@@H](CCC(N)=O)C\4(C)C)[C@@H](CCC(N)=O)[C@]\3(C)CC(N)=O)[C@@H](CCC(N)=O)[C@]2(C)CC(N)=O.[CH3-].[Co+3]` [MeCbl, methylcobalamin] here?
**A.** 31700 ± 3300 M⁻¹ s⁻¹

**Q.** With `COc1cc2c(c(OC)c1OC)-c1ccc(OC)c(=O)cc1[C@@H](NC(C)=O)CC2` [colchicine] as the compound, how does the “effect on tubulin networks” value (HeLa cells) read?
**A.** tubulin networks become disrupted

**Q.** With “Coenzyme B12-ATTO 725 Conjugate [AdoCbl-3]” as the compound, how does the “photolysis at 546 nm (LC/MS)” value [2] read?
**A.** complete photolysis

**Q.** What about the “photolysis at 646 nm (UV-Vis, LC/MS)” value [2] of the same compound?
**A.** partial photolysis

**Q.** What about the “photolysis at 730 nm (LC/MS)” value [2] of the same compound?
**A.** complete photolysis

**Q.** What about the “photolysis at 780 nm (LC/MS)” value [2] of the same compound?
**A.** not at 780 nm

**Q.** For “Coenzyme B12-Dylight® 800 Conjugate [AdoCbl-4]”, which “photolysis at 546 nm (LC/MS)” value [2] is on record?
**A.** generated the expected adenosine products

**Q.** What about the “photolysis at 646 nm (UV-Vis, LC/MS)” value [2] of the same compound?
**A.** resistant to photolysis

**Q.** What about the “photolysis at 730 nm (LC/MS)” value [2] of the same compound?
**A.** Partial photolysis

**Q.** What about the “photolysis at 780 nm (LC/MS)” value [2] of the same compound?
**A.** generated the expected adenosine products

**Q.** Which results are given for “Coenzyme B12-SulfoCy5 Conjugate [AdoCbl-2]”?
**A.** photolysis at 546 nm (LC/MS) [2]: produced adenosine products; photolysis at 646 nm (UV-Vis, LC/MS) [2]: produced adenosine products; photolysis at 730 nm (LC/MS) [2]: unaffected; photolysis at 780 nm (LC/MS) [2]: unaffected

**Q.** Which “rate of photolysis at 546 nm” value [1] does the source give for coenzyme B12-TAMRA conjugate [AdoCbl-1] here?
**A.** 2.9±0.3 μM^−1/m

**Q.** And the “photolysis at 546 nm (LC/MS)” value [2]?
**A.** produces these products

**Q.** And the “photolysis at wavelengths beyond 600 nm (LC/MS)” value [2]?
**A.** resistant to photolysis

**Q.** Which half life [3] does the source give for “αMSH: 13 amino acid α-melanocyte stimulating hormone” here?
**A.** only a few minutes
